Assays:
[1] = molecular target: farnesoid X receptor (FXR) (Homo sapiens, UniProt Q96RI1); settings: cited from earlier work
COX2 promoter = assay: COX-2 promoter-dependent reporter luciferase gene expression; type: cell-based, human; settings: 0.1 nM TNF 24 hours
Experimental: COX-2 Promoter-dependent Reporter Luciferase Gene Expression: COX-2 promoter activity was examined as described elsewhere (Shishodia et al., 2003). To further determine the effect of guggulsterone on COX-2 promoter, […] cells were seeded at a concentration of 1.5×10^5 cells per well in six-well plates. After overnight culture, the cells in each well were transfected with 2 μg DNA consisting of COX-2 promoter-luciferase reporter plasmid, along with 6 μl of LIPOFECTAMINETM 2000 (Life Technologies, Inc.) according to the manufacturer's protocol. The COX-2 promoter (-375 to +59), amplified from human genomic DNA by using the primers [NT] (sense) (SEQ ID NO:3) and [NT] (antisense) (SEQ ID NO:4), was provided by Dr. Xiao-Chun Xu (M.D. Anderson Cancer Center). After a 6 hour exposure to the transfection mixture, the cells were incubated in medium containing guggulsterone for 12 hours. The cells were exposed to TNF (0.1 nM) for 24 hours and then harvested. Luciferase activity is measured by using the Promega luciferase assay system according to the manufacturer's protocol and detected by using […] 2010 (Analytical Luminescence Laboratory, San Diego, Calif.).

Akt = assay: TNF-induced Akt activation, Western blot with phospho-specific anti-Akt; type: cell-based; settings: pretreatment with guggulsterone, TNF (1 nM)
From the text: Guggulsterone Suppressed TNF-induced Activation of Akt: The results till now indicate that guggulsterone inhibits TNF-induced NF-κB activation through inhibition of IKK activation. It is possible that this inhibition is due to inhibition of an upstream kinase. Previous studies have reported that Akt can activate IKK. Thus it is possible that guggulsterone suppresses TNF-induced Akt activation. To determine the effect of guggulsterone on the activation of Akt induced by TNF, the cells were treated with guggulsterone, and then exposed to TNF (1 nM) for different times. Thereafter whole-cell extracts were prepared and Western blot analysis using phospho-specific anti-Akt antibody was performed.

[2] = test system: cyclin D1, cdc2, p21, p27, GADD45β, xIAP, Bfl-1/A1, Bcl-2, BclX1, cFLIP, survivin, c-myc, COX2; assay: Western blot of cell cycle, anti-apoptotic, proliferative and metastatic gene products in U937 cells; type: cell-based, human; settings: 10 μM
Experimental: Western blot analysis. Thirty to fifty micrograms of cytoplasmic, nuclear or whole cell protein was resolved on 10% SDS-PAGE gel, transferred to a nitrocellulose membrane, blocked with 5% non-fat milk, and probed with specific antibodies as per manufacturer's recommended protocol. The blots were washed, exposed to HRP-conjugated secondary antibodies for 1 h, and detected by ECL reagent (Amersham Pharmacia Biotechnology, Piscataway, N.J.). The bands were quantitated using a Personal Densitometer Scan v1.30 using Imagequant software version 3.3 (Molecular Dynamics).

U937 cells = assay: Thymidine incorporation assay; type: cell-based, human; settings: 72 h
Experimental: Thymidine incorporation assay. The antiproliferative effects of guggulsterone were also monitored by the thymidine incorporation method. For this, 5000 cells in 100 μL medium were cultured in triplicate in 96-well plates in the presence or absence of guggulsterone for 72 hours. At 6 hours before the completion of experiment, cells were pulsed with 0.5 μCi (0.0185 MBq) ^3H-thymidine, and the uptake of ^3H-thymidine was monitored by means of a Matrix-9600 β-counter (Packard Instruments, Downers Grove, Ill.).

STAT3 = assay: Constitutive STAT3 phosphorylation in U266 cells, Western blot; type: cell-based, human
Experimental: Western blot. For detection of STAT proteins, whole-cell extracts were prepared by lysing the guggulsterone-treated cells in lysis buffer (20 mM Tris, pH 7.4, 250 mM NaCl, 2 mM EDTA, pH 8.0, 0.1% Triton −X100, 0.01 mg/ml aprotinin, 0.005 mg/ml leupeptin, 0.4 mM PMSF, and 4 mM NaVO4). Lysates were then spun at 14,000 rpm for 10 min to remove insoluble material, and resolved on a 7.5% gel. After electrophoresis, the proteins were electrotransferred to a nitrocellulose membrane, blocked with 5% nonfat milk, and probed with anti-STAT antibodies (1:1000) overnight at 4° C. The blot was washed, exposed to HRP-conjugated secondary antibodies for 1 h, and finally examined by chemiluminescence (ECL, Amersham Pharmacia Biotech. Arlington Heights, Ill.).

tumor cells = assay: Antiproliferative effects against tumor cells (MTT); type: cell-based, human
Experimental: Cytotoxicity Assay: Cytotoxicity was assayed by the modified tetrazolium salt 3-(4-5-dimethylthiozol-2-yl)2-5-diphenyl-tetrazolium bromide (MTT) assay (Bharti et al., 2003). […] Thereafter, 0.025 ml of MTT solution (5 mg/ml in PBS) was added to each well. After a 2 hour incubation at 37° C., 0.1 ml of the extraction buffer (20% SDS, 50% dimethylformamide) was added. After an overnight incubation at 37° C., the optical densities at 570 nm were measured using a 96-well multiscanner autoreader (Dynatech MR5000), with the extraction buffer as blank. The percent cytotoxicity was determined as follows: (1−(A570 of test sample)/(A570 of control sample)×100%.
Cytotoxicity assay. The cytotoxic effects of guggulsterone was determined by the MTT uptake method. Briefly, 5000 cells were incubated with guggulsterone in triplicate in a 96-well plate at 37° C. MTT solution was then added to each well. After a 2-h incubation at 37° C., extraction buffer (20% SDS, 50% dimethylformamide) was added, the cells were incubated overnight at 37° C., and the OD was then measured at 570 nm using a 96-well multiscanner (Dynex Technologies, MRX Revelation, Chantilly, Va.).

farnesoid X receptor (FXR), sequence (Q96RI1 whole entry, species assumed): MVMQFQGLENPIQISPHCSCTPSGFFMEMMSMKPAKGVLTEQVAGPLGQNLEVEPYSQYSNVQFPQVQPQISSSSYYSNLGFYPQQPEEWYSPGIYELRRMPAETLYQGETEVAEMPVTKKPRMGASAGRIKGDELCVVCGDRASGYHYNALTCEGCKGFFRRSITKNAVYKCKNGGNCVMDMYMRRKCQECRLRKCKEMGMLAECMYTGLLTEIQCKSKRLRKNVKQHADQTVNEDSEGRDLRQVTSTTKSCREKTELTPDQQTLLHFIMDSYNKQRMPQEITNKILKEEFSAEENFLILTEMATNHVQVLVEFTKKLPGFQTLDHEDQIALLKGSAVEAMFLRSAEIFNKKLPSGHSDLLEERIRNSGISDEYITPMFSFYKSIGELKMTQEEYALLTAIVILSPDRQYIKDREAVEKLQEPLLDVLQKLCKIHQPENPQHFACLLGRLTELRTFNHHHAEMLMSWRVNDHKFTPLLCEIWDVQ

SMILES: CC=C1C(=O)C[C@H]2[C@@H]3CCC4=CC(=O)CC[C@]4(C)[C@H]3CC[C@]12C [guggulsterone, 4,17(20)-pregnadiene-3,16-dione]
- action on bile acid receptor farnesoid X receptor (FXR) ([1]; Urizar et al., 2002, Wu et al.): antagonist
- expression of bile acid-activated genes ([1]; Urizar et al., 2002, Cui et al., 2003): decrease the expression of bile acid-activated genes
- TNF-induced COX2 promoter activity (COX2 promoter): abolished the COX2 promoter activity in a dose-dependent manner
- TNF-induced Akt activation (Akt): completely suppressed the activation
- gene products involved in antiapoptosis (xIAP, Bfl-1/A1, Bcl-2, BclX1, cFLIP, survivin), proliferation (c-myc) and metastasis (COX2) [2]: inhibited the gene products involved in antiapoptosis
- levels of cyclin D1 and cdc2 [2]: decrease in the levels of cyclin D1 and cdc2
- levels of p21, p27 and GADD45β [2]: increase in the levels of cyclin dependent kinase inhibitor p21, p27
- proliferation of U937 cells, 3H-thymidine incorporation (U937 cells): inhibits proliferation in U937 cells
- overall expression of STAT3 protein (STAT3): did not alter the overall expression of STAT3 protein
- earliest time at which inhibition of constitutive STAT3 phosphorylation is observed (STAT3; 25 μM): 4 h
- lowest concentration at which inhibition of constitutive STAT3 phosphorylation is observed (STAT3; 4 h): 25 µM
- constitutively active (phosphorylated) STAT3 (STAT3; time- and dose-dependent): inhibited the constitutively active STAT3
- proliferation of head and neck, lung, melanoma, multiple myeloma, leukemia and breast cancer cells (tumor cells; 2000 cells in 0.1 ml, six days, MTT): suppressed the proliferation of a wide variety of cells
- proliferation of human leukemia, head and neck carcinoma, multiple myeloma, lung carcinoma, melanoma, breast carcinoma and ovarian cancer cell lines (tumor cells; Example 2): inhibits the proliferation
- proliferation of drug resistant cancer cells (tumor cells; STI-resistant K562, dexamethasone resistant MM1, doxorubicin resistant breast cancer cell lines): inhibited the proliferation of drug resistant cancer cells
